The test system of the test is mice. Briefly: Screening drugs with macrophage/monocyte depletion capability for enhanced mRNA delivery (Fluc expression, MC3-LNP). Type of test: in vivo. The note with it: Fluc mRNA 0.2 mg/kg. As for the experimental part: FIGS. 6A-6B. Luciferase expression of pretreated mice injected with MC3-LNP loaded with Fluc mRNA (0.2 mg/kg).
In this example, various small molecules or monoclonal antibodies with reported macrophage depletion capabilities were screened to evaluate the effectiveness to enhance mRNA delivery. Drugs used in this study include clodronate liposome (Lipo-Clodronate), anti-CD115, anti-CCR2, anti-Ly6C, anti-Gr-1 and zoledronate (10 μg, 50 μg and 100 μg).
FIG. 5 lists treatment methods studied in this example. […] In a different experiment, zoledronate was encapsulated in liposomes (formulated with DSPC and cholesterol) and delivered to the mouse at different dosage.

Structures are written as SMILES.

In the case of `O=P(O)(O)C(O)(Cn1ccnc1)P(=O)(O)O` [zoledronate], the “mRNA delivery / Fluc expression of MC3-LNP in pretreated mice” value (10 μg of zoledronate) was “enhanced the mRNA delivery”. The “Fluc expression of MC3-LNP in pretreated mice” value (high dose of zoledronate) is recorded as “decreased the Fluc expression”.

The record behind these values is patent US20250064741A1, “METHODS FOR ENHANCED NUCLEIC ACID DELIVERY” (CORNELL UNIVERSITY, priority 2021, published 2025).
